This is an account of results in PMC6804080, “Benzoxaboroles—Novel Autotaxin Inhibitors” (Molecules, 2019).

Each structure is given as a SMILES string.

Data set [1] can be described thus: in vitro plasma stability, human plasma. It is filed as in vitro ADME. Particulars: after 4 h. On the procedure: (§1) The in vitro plasma stability of the test compounds was studied in human and rat plasma with propranolol, benflorex, and eucatropine as control substances. All compounds at final concentrations of 5 μM (0.5% DMSO) were incubated in a phosphate buffer (50 mM, pH 7.4) for 4 h at 37 °C together with plasma. Aliquots were taken at different time points (0, 30, 120 min and 4 h), followed by reaction termination by the addition of CH3CN:CH3OH 2:1 v/v., which contained diclofenac and warfarin as internal standards (IS). Samples were then centrifuged (at 1600 rpm at 4 °C for 30 min), and the resulting supernatants were subjected to LC/MS/MS analysis. Results are expressed as % remaining.

Data set [2] can be described thus: plasma protein binding, equilibrium dialysis, rat plasma. It is filed as in vitro ADME. Particulars: pH 7.4, rat plasma, read-out: PPB: fraction bound, rat (converted). As to the method:
(§2) Plasma protein binding was measured using the equilibrium dialysis technique. Positive controls included in this assay were: Acebutolol (low binding) and nicardipine (very high binding). The assay was performed in a 96-well Teflon dialysis unit, where each well consisted of two chambers separated by a dialysis membrane. Plasma (human and rat, commercially obtained from Seralab) spiked with each compound (final concentration: 5 µM, 0.5% DMSO) were added to one chamber, and a blank buffer solution (60 mM Na2HPO4/14 mM KH2PO4/70 mM NaCl; pH 7.4) was added to the other side of the well. Each compound was analyzed in duplicate, for 4 h at 37 °C. After 4 h, both the plasma (free and bound fraction) and buffer (only free fraction) side of the well were sampled, matrix matched, then precipitated with a STOP solution (CH3CN:CH3OH 2:1 v/v, containing diclofenac as internal standard), and centrifuged at 2000 rpm for 30 min (+4 °C). The resulting supernatants were analyzed by LC-MS/MS. The fraction bound was calculated as the concentration difference (analyte vs. internal standard peak area ratio) in the plasma and buffer sides divided by the total concentration in the plasma side. Sampling was also performed from spiked plasma at t = 0 min in order to determine recovery, i.e., % of compound detected at t = 4 h in both the plasma and buffer chambers divided by the compound detected at t = 0 min.
A general note: In equilibrium dialysis only unbound substance equilibrates across the membrane.

Data set [3] in a line: metabolic stability in rat liver microsomes. It is filed as in vitro ADME. On the procedure: (§3) Metabolic stability was assessed in rat and human liver microsomes, with testosterone and propranolol as positive controls. All compounds, at a final concentration of 1 μM (0.03% DMSO), were incubated in a phosphate buffer (50 mM, pH 7.4) for 60 min at 37 °C, together with liver microsomes in the absence and presence of NADPH generating system (nicotinamide adenine dinucleotide phosphate (NADP, 2 mM), glucose-6-phosphate (20 mM), glucose-6-phosphate dehydrogenase (6U) and magnesium chloride (2 mM)). Aliquots were taken at different time points (0, 10, 20, 30, 45 and 60 min), followed by reaction termination by addition of CH3CN:CH3OH 2:1 v/v, containing diclofenac as internal standard (IS). Samples were then centrifuged (at 2000 rpm at 4 °C for 30 min), and resulting supernatants were subjected to LC/MS/MS analysis. The in vitro half-life was calculated in GraphPadPrism software from % remaining vs. time regression using non-linear regression fit. In vitro intrinsic clearance, expressed as mL/min/g liver, was determined from in vitro half-life and normalized for the protein concentration in the incubation mixture, assuming a 52.5 mg/g liver.
On the technique in general: Liver microsomes are vesicles of endoplasmic reticulum, rich in cytochrome P450 enzymes.

For a further data set, the target named is T1, Autotaxin (ATX) (Homo sapiens, UniProt Q13822).
T1 construct: we added 10 μL of recombinant ATX (2 ng/mL) in a Tris–HCl buffer
In words: biochemical choline detection assay for ATX inhibition, LysoPC substrate. Particulars: for IC50: mean standard deviation from duplicate experiments. As to the method:
All 21 new benzoxaboroles derivatives prepared herein were evaluated for ATX inhibition in vitro using a biochemical choline detection assay, combining elements of assays already described in the literature.
[…] Mother plates with serial dilutions of compounds in pure DMSO were prepared from 10 mM DMSO stock solutions. Storplate-384-deep-well-V plates (Perkin Elmer) were also used for mother plate preparation. Compounds were diluted in a DMSO in a ratio of 1:3. An aliquot of 200 nL of compound solution was transferred from the mother plate to the test plate with a Mosquito nanoliter liquid handling system (TTP labtech). The assay was performed in Spectra-Plate-384 TC, transparent, (Perkin Elmer, Cat#6007658) using a 20 µL assay volume. The total final percentage of DMSO in the test media was 1%. Compounds were tested at 11 consecutive three-fold dilutions starting from 50 µM (final concentrations) in duplicate, covering range of 0.0008–50 μM to determine IC50 values. […] After dispensing of compounds directly to the dry plate, we added 10 μL of recombinant ATX (2 ng/mL) in a Tris–HCl buffer (140 mM NaCl, 1mM MgCl2, 5 mM KCl, 3 mM CaCl2, 1 mg/ml bovin serum albumin (BSA, fatty acid free) and 100 mM Tris–HCl, pH 9). […] The above-described solution with dimethyl sulfoxide but without the test compound was used as a control. LysoPC without ATX was used as a control for the autohydrolysis of LysoPC. After 1.5 h of incubation, 20 μL of stop solution and developer was added {Choline oxidase (1.2 U/mL), Peroxidase (1.2 U/mL), TOOS (2.7 mM), 4-Aminoantipyrine (2.7 mM), and EDTA (50 mM)} to the reaction mixture, and absorbance was measured after 30 min of incubation. The absorbance was measured by using Perkin-Elmer EnVision plate reader (λ = 555 nm). Data were analyzed using GraphPad Prism software. The calculation of IC50 data, curves and quality control (QC) analysis was made by using Excel tools and GraphPadPrism software. Briefly, individual concentration–effect curves were generated by plotting the logarithm of the tested concentration of tested compounds (X) vs. corresponding percentage inhibition values (Y) using a least squares (ordinary) fit. […] QC criteria parameters (Z,’ S:B, ΔmP) were checked for every plate.

The nature of data set [4]: metabolic stability in human liver microsomes. It is filed as in vitro ADME. As to the method:
as §3

The nature of data set [5]: in vitro plasma stability, rat plasma. Format: in vitro ADME. As to conditions: after 4 h. On the procedure:
as §1

Data set [6] can be described thus: Chrom logD determination by gradient HPLC (CHI). Format: physicochemical. As to conditions: pH 7.4, Luna C18 column; for chromatographic logD: reversed-phase HPLC, Phenomenex Luna C18 column. As to the method: clogP values were calculated for all compounds using the Percepta software. Chrom logD was determined experimentally using a procedure described in the supplementary data. Furthermore, the correlation between calculated clogP values and experimentally determined Chrom log D values were explored for molecules containing boron functional groups such as boronic acids and benzoxaboroles.
Chrom logD values were determined from the following equation: Chrom logD = 0.0857 × CHI − 2 [39]. Chromatographic hydrophobic index (CHI) values were determined from the gradient retention times (RT). These values approximately corresponded to the volume percentage of organic component in the mobile phase when the compound elutes. CHI values were determined at pH 7.4. Chromatograms were obtained using on Agilent 1100 Series liquid chromatography system with an HPLC diode-array detector (DAD) coupled with a Micromass Quattro micro atmosphere pressure ionization (API) mass spectrometer. The column used for analyses was Phenomenex Luna C18 (50 × 3 mm, 5 µm, 100 Å). The column was maintained at 25 °C. The flow rate was 1.0 mL/min. The mobile phase was composed of 50 mM ammonium acetate in water at pH 7.4 (solvent A) and acetonitrile (solvent B). The solvent gradient condition was initially 0.5% B, and then it increased linearly to 100% B over 3.0 min, remaining at 100% B for 0.5 min, then decreasing linearly to 0% B over 0.2 min followed by an equilibration period of 1.3 min prior to the next injection. The total experimental duration was 5 min. Injection volume was 2.0 µl. Samples temperature was maintained at 15 °C in the autosampler chamber. A group of ten standard compounds having different CHI values was used for calibration of RP-HPLC [40].

The nature of data set [7]: kinetic solubility, turbidimetric method. It is filed as physicochemical. As to conditions: for solubility kinetic at 1 h: 37 °C, pH 7.4, aqueous buffer, kinetic from dmso stock, Solubility (kinetic solubility range). On the procedure:
Turbidimetric solubility allows for a rapid determination of kinetic solubility by using small amounts of the test compound. Assay controls were α-naphtoflavone (low solubility) and sulfaphenazole (expected solubility >100µM). DMSO stock solutions (10 mM) of each compound were first serially diluted 1 in 3 in DMSO and then spiked into an aqueous buffer (100 mM PBS), resulting in 5 following final concentration: 100, 30, 10, 3 and 1 µM (each concentration was tested in duplicate). […] Compound samples were compared to a solvent control in an aqueous buffer (DMSO 1% final concentration), and a significant increase of sample absorbance was considered to have occurred when the absorbance reached a 3-fold standard deviation of the average DMSO absorbance. The calculation of solubility range data was made by Excel tool software. Results are expressed as an estimated solubility range.

A short description of data set [8]: plasma protein binding, equilibrium dialysis, human plasma. It is filed as in vitro ADME. As to conditions: for fraction unbound at 4 h, 5 µM: pH 7.4, read-out: PPB: fraction bound, human (converted). As to the method: as §2
[9] abbreviates: choline release assay using as a substrate.

Usually IC50 stands for the concentration that inhibits the measured activity by half. Low values mean greater potency in that assay, high ones weaker potency in that assay. What is called chromatographic logD is a lipophilicity value derived from retention on a column. Broadly, the solubility (kinetic) is the concentration staying in solution when a stock, usually in DMSO, is diluted into the medium. Take `Cc1cc(C)cc(COC(=O)N2CCN(C3CN(C(=O)c4ccc5c(c4)B(O)OC5)C3)CC2)c1` [Compound 45, (3,5-dimethylphenyl)methyl 4-[1-(1-hydroxy-3H-2,1-benzoxaborole-6-carbonyl)azetidin-3-yl]piperazine-1-carboxylate]: the “PS (plasma stability), human” value in data set [1] stood at 72.8 %remaining. For the same compound, the fraction unbound at 4 h, 5 µM was 0.056 in data set [2] and 0.041 in [8]. In addition, the “LMS: predicted in vivo hepatic clearance, rat” value (shortened to “LMS: predicted … rat”) in [3] is on record as 61 %LBF. The compound also displayed a concentration for half-maximal inhibition (IC50) against Autotaxin (ATX) (setting [9]) of 1 ± 1.15 µM. Besides, the “LMS: predicted in vivo hepatic clearance, human” value (“LMS: predicted … human” below) in data set [4] was 84 %LBF. In [5], the “PS (plasma stability), rat” value is given as 68.6 %remaining. Besides, in data set [6], the chromatographic logD came to 4.17. Also, the kinetic solubility at 1 h in data set [7] is more than 100 µM.

As to `Cc1cc(C)cc(COC(=O)N2CCN(C3CCN(C(=O)c4ccc5c(c4)B(O)OC5)C3)CC2)c1` (stereo not shown) [Compound 43, (3,5-dimethylphenyl)methyl 4-[1-(1-hydroxy-3H-2,1-benzoxaborole-6-carbonyl)pyrrolidin-3-yl]piperazine-1-carboxylate], the “PS (plasma stability), human” value in [1] was determined as 79.2 %remaining. In addition, the fraction unbound at 4 h, 5 µM in data set [2] is 0.039; in [8] it was 0.022. In addition, the “LMS: predicted … rat” value in data set [3] is given as 80 %LBF. The 50% inhibitory concentration (IC50) at Autotaxin (ATX) (setting [9]) came out at 2.7 ± 2.11 µM. In data set [4], the “LMS: predicted … human” value is recorded as 85 %LBF. Also, the “PS (plasma stability), rat” value in data set [5] worked out at 59.5 %remaining. Further, the chromatographic logD in data set [6] worked out at 4.13. Besides, the kinetic solubility at 1 h in data set [7] is more than 100 µM.

Take `O=C(OCc1cc(Cl)cc(Cl)c1)N1CCN(C2CCN(C(=O)c3ccc4c(c3)COB4O)CC2)CC1` [Compound 35, (3,5-dichlorophenyl)methyl 4-[1-(1-hydroxy-3H-2,1-benzoxaborole-5-carbonyl)-4-piperidyl]piperazine-1-carboxylate]: in data set [1], the “PS (plasma stability), human” value worked out at 59.2 %remaining. Also, the “LMS: predicted … rat” value in data set [3] is 86 %LBF. Also, the IC50 against Autotaxin (ATX) (setting [9]) came out at 1.8 ± 1.75 µM. In addition, the “LMS: predicted … human” value in data set [4] was 89 %LBF. For the same compound, the “PS (plasma stability), rat” value in data set [5] is 63.0 %remaining. This compound showed a chromatographic logD in [6] of 4.58. In addition, the solubility (kinetic) at 1 h in data set [7] is more than 100 µM. Besides, the fraction unbound at 4 h, 5 µM in data set [8] is 0.017.

For `O=C(OCc1cc(Cl)cc(Cl)c1)N1CCN(C2CCN(C(=O)c3ccc4c(c3)B(O)OC4)CC2)CC1` [Compound 34], the “PS (plasma stability), human” value in data set [1] was 70.6 %remaining. The “LMS: predicted … rat” value in data set [3] is on record as 77 %LBF. This compound also had a concentration for half-maximal inhibition (IC50) against Autotaxin (ATX) (choline release assay using LPC C16:0 as a substrate) of 0.92 ± 0.82 µM. In addition, on Autotaxin (ATX) (in words), the “ATX inhibition, range of activity” value was “nanomolar range”. For the same compound, the “LMS: predicted … human” value in data set [4] is reported as 89 %LBF. In addition, the “PS (plasma stability), rat” value in data set [5] is recorded as 61.6 %remaining. The “Chrom logD” value in [6] worked out at 5.49. Besides, the “Solubility (kinetic solubility range)” value in data set [7] (turbidimetric, PBS pH 7.4, after 1h) is recorded as more than 100 µM. For the same compound, in data set [8], the “PPB: fraction bound, human” value was “NA ^e/99.2%”.

Turning to `O=C(OCc1cc(Cl)cc(Cl)c1)N1CCN(C2CCN(C(=O)c3cccc4c3B(O)OC4)C2)CC1` (stereo not shown) [Compound 31, (3,5-dichlorophenyl)methyl 4-[1-(1-hydroxy-3H-2,1-benzoxaborole-7-carbonyl)pyrrolidin-3-yl]piperazine-1-carboxylate], in data set [1], the “PS (plasma stability), human” value is 71.6 %remaining. Also, the “LMS: predicted … rat” value in data set [3] is 86 %LBF. At Autotaxin (ATX) (setting [9]), the half-maximal inhibitory concentration (IC50) was 7.5 ± 5.6 µM. Moreover, in data set [4], the “LMS: predicted … human” value is 85 %LBF. Moreover, the “PS (plasma stability), rat” value in data set [5] turned out to be 67.9 %remaining. The compound further displayed a chromatographic logD in data set [6] of 4.63. Besides, the kinetic solubility at 1 h in data set [7] was more than 100 µM. In addition, the fraction unbound at 4 h, 5 µM in data set [8] is 0.022.
